From PubChem BioAssay AID256 (DTP/NCI, 2004)
Several values for one entry are separate records, joined by “and”; a condition that tells them apart may be missing. Equal values may be shown once. Inconclusive results and toxic doses are left out. How the source made its calls: active means survival T/C of 150% or more; inactive means T/C below 125% in these data.

System: CD2F1 mice, L1210 leukemia ip, survival T/C
Assay: NCI In Vivo Anticancer Drug Screen. Data for tumor model L1210 Leukemia (intraperitoneal) in CD2F1 (CDF1) mice
Conditions: higher = longer survival
Procedure, shortened: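 In this screen, transplantable tumors were grown in mice given either the compound or its vehicle. Results were expressed as the treated measurement relative to the control measurement.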

[1] = endpoint: mean survival time, dose: 25.0 mg/kg/injection, schedule: Q01DX009 (ip), vehicle: saline with Tween-80
[2] = endpoint: mean survival time, dose: 50.0 mg/kg/injection, schedule: Q01DX009 (ip), vehicle: saline with Tween-80
[3] = endpoint: mean survival time, dose: 100.0 mg/kg/injection, schedule: Q01DX009 (ip), vehicle: saline with Tween-80
[4] = endpoint: mean survival time, dose: 200.0 mg/kg/injection, schedule: Q01DX009 (ip), vehicle: saline with Tween-80
[5] = endpoint: mean survival time, dose: 100.0 mg/kg/injection, schedule: Q01DX001 (ip), vehicle: saline with Tween-80
[6] = endpoint: mean survival time, dose: 200.0 mg/kg/injection, schedule: Q01DX001 (ip), vehicle: saline with Tween-80
[7] = endpoint: mean survival time, dose: 400.0 mg/kg/injection, schedule: Q01DX001 (ip), vehicle: saline with Tween-80
[8] = endpoint: mean survival time, dose: 400.0 mg/kg/injection, schedule: Q01DX009 (ip), vehicle: saline with Tween-80
[9] = endpoint: mean survival time, dose: 50.0 mg/kg/injection, schedule: Q01DX009 (ip), vehicle: Klucel (hydroxypropylcellulose) (HPC)
[10] = endpoint: mean survival time, dose: 100.0 mg/kg/injection, schedule: Q04DX003 (ip), vehicle: saline with Tween-80
[11] = endpoint: mean survival time, dose: 200.0 mg/kg/injection, schedule: Q04DX003 (ip), vehicle: saline with Tween-80
[12] = endpoint: mean survival time, dose: 400.0 mg/kg/injection, schedule: Q04DX003 (ip), vehicle: saline with Tween-80

Measured: T/C

Cc1sc(C)c(CCl)c1CCl
inactive: endpoint: mean survival time, dose: 12.5 mg/kg/injection, schedule: Q01DX009 (ip), vehicle: saline with Tween-80 104 % of control | [1] 108 % of control | [2] 98 % of control

CC1CC(C)(C)OC(C(C)(C)C)O1 (stereo not drawn)
inactive: endpoint: mean survival time, dose: 50.0 mg/kg/injection, schedule: Q04DX002 (ip), vehicle: saline 92 % of control | endpoint: mean survival time, dose: 100.0 mg/kg/injection, schedule: Q04DX002 (ip), vehicle: saline 100 % of control | endpoint: mean survival time, dose: 200.0 mg/kg/injection, schedule: Q04DX002 (ip), vehicle: saline 103 % of control

CCC/C=C/CCOC(=N)C(Cl)(Cl)Cl
inactive: [2] 92 % of control | [3] 92 % of control | [4] 88 % of control

CNC(=S)Nc1ncn[nH]1
inactive: endpoint: mean survival time, dose: 12.5 mg/kg/injection, schedule: Q01DX001 (ip), vehicle: carboxymethylcellulose (CMC) 95 % of control | endpoint: mean survival time, dose: 25.0 mg/kg/injection, schedule: Q01DX001 (ip), vehicle: carboxymethylcellulose (CMC) 93 % of control | endpoint: mean survival time, dose: 50.0 mg/kg/injection, schedule: Q01DX001 (ip), vehicle: carboxymethylcellulose (CMC) 93 % of control | endpoint: mean survival time, dose: 100.0 mg/kg/injection, schedule: Q01DX001 (ip), vehicle: carboxymethylcellulose (CMC) 91 % of control | endpoint: mean survival time, dose: 200.0 mg/kg/injection, schedule: Q01DX001 (ip), vehicle: carboxymethylcellulose (CMC) 91 % of control

CCC(CC(N)=O)C(C#N)(C#N)C(N)=O (stereo not drawn)
inactive: [5] 100 % of control | [6] 98 % of control | [7] 98 % of control

Cc1ccccc1N=C(NO)c1ccccc1
inactive: endpoint: mean survival time, dose: 50.0 mg/kg/injection, schedule: Q01DX009 (ip), vehicle: saline 98 % of control | endpoint: mean survival time, dose: 100.0 mg/kg/injection, schedule: Q01DX009 (ip), vehicle: saline 98 % of control | endpoint: mean survival time, dose: 200.0 mg/kg/injection, schedule: Q01DX009 (ip), vehicle: saline 95 % of control

C#CCOC1CCCCC1O (stereo not drawn)
inactive: endpoint: mean survival time, dose: 100.0 mg/kg/injection, schedule: Q04DX003 (ip), vehicle: acetone 101 % of control

O=C1CCCC2C(=O)CCCC12 (stereo not drawn)
inactive: [3] 97 % of control | [4] 103 % of control | [8] 103 % of control

CSC(I)(N(C)C)N(C)C
inactive: endpoint: mean survival time, dose: 75.0 mg/kg/injection, schedule: Q01DX001 (ip), vehicle: saline 98 % of control | endpoint: mean survival time, dose: 150.0 mg/kg/injection, schedule: Q01DX001 (ip), vehicle: saline 101 % of control | endpoint: mean survival time, dose: 300.0 mg/kg/injection, schedule: Q01DX001 (ip), vehicle: saline 98 % of control

CN(C)Cc1cccc2ccccc12
inactive: endpoint: mean survival time, dose: 12.5 mg/kg/injection, schedule: Q01DX009 (ip), vehicle: Klucel (hydroxypropylcellulose) (HPC) 109 % of control | endpoint: mean survival time, dose: 25.0 mg/kg/injection, schedule: Q01DX009 (ip), vehicle: Klucel (hydroxypropylcellulose) (HPC) 109 % of control | [9] 97 % of control

N#Cc1nc(N)nc2c1ncn2-c1ccc(C(N)=O)cc1
inactive: [5] 96 % of control | [6] 101 % of control | [7] 90 % of control

CC(c1ccc2ccccc2c1)C1CCCCC1C(=O)O (stereo not drawn)
inactive: [3] 102 % of control | [4] 100 % of control | [8] 97 % of control

CSc1nc(C)cc(N)n1
inactive: [10] 107 % of control | [11] 102 % of control

Cc1nc2n3c(nc(C)c13)=CCC2
inactive: [1] 96 % of control | [2] 98 % of control | [3] 93 % of control | [10] 97 % of control

N=C(N)c1ccc(OCCCCOc2ccc(NC(=O)Nc3ccc(S(=O)(=O)F)cc3Cl)cc2)cc1
inactive: endpoint: mean survival time, dose: 12.5 mg/kg/injection, schedule: Q01DX001 (ip), vehicle: saline with Tween-80 98 % of control | endpoint: mean survival time, dose: 25.0 mg/kg/injection, schedule: Q01DX001 (ip), vehicle: saline with Tween-80 98 % of control | endpoint: mean survival time, dose: 50.0 mg/kg/injection, schedule: Q01DX001 (ip), vehicle: saline with Tween-80 96 % of control

O=C(O)C(=O)O.[NH-]C1CCCC1[NH-].[Pt+2] (stereo not drawn)
inactive: endpoint: mean survival time, dose: 1.25 mg/kg/injection, schedule: Q04DX003 (ip), vehicle: other 104 % of control | endpoint: mean survival time, dose: 2.5 mg/kg/injection, schedule: Q04DX003 (ip), vehicle: other 114 % of control | endpoint: mean survival time, dose: 5.0 mg/kg/injection, schedule: Q04DX003 (ip), vehicle: other 115 % of control | endpoint: mean survival time, dose: 10.0 mg/kg/injection, schedule: Q04DX003 (ip), vehicle: other 106 % of control

CCc1ccccc1OS(=O)(=O)c1cccc([N+](=O)[O-])c1
inactive: [3] 96 % of control | [10] 99 % of control | [4] 98 % of control | [11] 100 % of control | [8] 98 % of control | [12] 99 % of control

Cc1cc(NC(=O)Nc2cc(Cl)ccc2C)no1
inactive: [9] 98 % of control | endpoint: mean survival time, dose: 200.0 mg/kg/injection, schedule: Q01DX009 (ip), vehicle: Klucel (hydroxypropylcellulose) (HPC) 91 % of control

CCCCc1ccc(N=Cc2ccc(C=Nc3ccc(CCCC)cc3)cc2)cc1
inactive: [10] 94 % of control | [11] 89 % of control | [12] 89 % of control

COc1cc(/C=N\Nc2ccccc2[N+](=O)[O-])cc(OC)c1OC
inactive: [3] 93 % of control | [4] 103 % of control | [8] 98 % of control

OCCNCc1ccc(Cl)cc1
inactive: [2] 96 % of control | [3] 98 % of control | [10] 103 % of control | [4] 93 % of control | [11] 96 % of control

O=C(c1ccccc1)C(C(c1ccc([N+](=O)[O-])cc1)N1CCOCC1)N1CCOCC1 (stereo not drawn)
inactive: [3] 97 % of control | [10] 101 % of control | [4] 96 % of control | [11] 101 % of control | [8] 96 % of control | [12] 108 % of control

C1CCC(C2CCCC[N-]2)[N-]C1.[Cl][Pt].[NH-]C(CC(N)=O)C(=O)O (stereo not drawn)
inactive: endpoint: median survival time, dose: 10.0 mg/kg/injection, schedule: Q04DX003 (ip), vehicle: saline 101 % of control | endpoint: median survival time, dose: 20.0 mg/kg/injection, schedule: Q04DX003 (ip), vehicle: saline 93 % of control | endpoint: median survival time, dose: 40.0 mg/kg/injection, schedule: Q04DX003 (ip), vehicle: saline 98 % of control | endpoint: median survival time, dose: 80.0 mg/kg/injection, schedule: Q04DX003 (ip), vehicle: saline 91 % of control and 104 % of control | endpoint: median survival time, dose: 160.0 mg/kg/injection, schedule: Q04DX003 (ip), vehicle: saline 95 % of control | endpoint: median survival time, dose: 320.0 mg/kg/injection, schedule: Q04DX003 (ip), vehicle: saline 86 % of control

O=C(/C=C/c1ccccc1)Oc1cc(O)cc(O)c1
inactive: endpoint: mean survival time, dose: 12.5 mg/kg/injection, schedule: Q04DX002 (ip), vehicle: saline with Tween-80 102 % of control | endpoint: mean survival time, dose: 25.0 mg/kg/injection, schedule: Q04DX002 (ip), vehicle: saline with Tween-80 105 % of control | endpoint: mean survival time, dose: 50.0 mg/kg/injection, schedule: Q04DX002 (ip), vehicle: saline with Tween-80 105 % of control

CCC(N)c1ccc2c3c(cccc13)CC2 (stereo not drawn)
inactive: [5] 89 % of control | [6] 86 % of control | [7] 89 % of control

CCOC(=O)c1ccc(NC(=S)NC(=O)c2ccc(Cl)cc2Cl)cc1
inactive: [10] 100 % of control | [11] 91 % of control | [12] 91 % of control

[B-][N+]1(C)CC[N+]([B-])(C)CC1 (stereo not drawn)
inactive: endpoint: mean survival time, dose: 5.0 mg/kg/injection, schedule: Q01DX009 (ip), vehicle: saline with Tween-80 104 % of control | endpoint: mean survival time, dose: 5.0 mg/kg/injection, schedule: Q04DX003 (ip), vehicle: saline 103 % of control | endpoint: mean survival time, dose: 10.0 mg/kg/injection, schedule: Q01DX009 (ip), vehicle: saline with Tween-80 96 % of control | endpoint: mean survival time, dose: 10.0 mg/kg/injection, schedule: Q04DX003 (ip), vehicle: saline 98 % of control | endpoint: mean survival time, dose: 20.0 mg/kg/injection, schedule: Q04DX003 (ip), vehicle: saline 98 % of control

COC(=O)C(Cl)C(Cl)c1ccccc1 (stereo not drawn)
inactive: [3] 100 % of control | [4] 105 % of control | [8] 101 % of control

O=c1c2ccccc2sc2ccc3c(ccc4sc5ccccc5c(=O)c43)c12
inactive: [5] 93 % of control | [6] 100 % of control | [7] 92 % of control

OC1CC2CC2CC1O (stereo not drawn)
inactive: [10] 103 % of control | [11] 92 % of control | [12] 96 % of control
